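Five compound concentrations were applied to cells in 96-well plates for 48 hours; endpoints were derived by simple linear interpolation of the resulting dose-response curve. At the GI50, growth is halved.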 Active and inactive are the calls of the source. No stated cut-off is given here; in the data, active = GI50 up to about 1.1 µM and inactive = higher.
What was measured:
Experiment in all cases: inhibition of tumour cell growth, NCI panel, 48 h
[1] = system: PC-3
[2] = system: OVCAR-8
[3] = system: SNB-19
[4] = system: MDA-N
[5] = system: MDA-MB-231
[6] = system: T47D
[7] = system: A498
[8] = system: SF-268
[9] = system: SK-MEL-2
[10] = system: NCI-H23
[11] = system: LOX IMVI
[12] = system: CAKI-1
[13] = system: COLO 205
[14] = system: BT-549
[15] = system: UACC-257
[16] = system: NCI-H460
[17] = system: NCI-H522
[18] = system: SK-OV-3
[19] = system: MOLT-4
[20] = system: HOP-92

Compound	GI50 [1]	GI50 [2]	GI50 [3]	GI50 [4]	GI50 [5]	GI50 [6]	GI50 [7]	GI50 [8]	GI50 [9]	GI50 [10]	GI50 [11]	GI50 [12]	GI50 [13]	GI50 [14]	GI50 [15]	GI50 [16]	GI50 [17]	GI50 [18]	GI50 [19]	GI50 [20]
N=C(N)NC(=N)Nc1ccccc1.Sc1nc2ccccc2s1	> 100 µM (inactive)	> 100 µM (inactive)	> 100 µM (inactive)	> 100 µM (inactive)	> 100 µM (inactive)	24.2 µM (inactive)	> 100 µM (inactive)	> 100 µM (inactive)	> 100 µM (inactive)	> 100 µM (inactive)	> 100 µM (inactive)	> 100 µM (inactive)	> 100 µM (inactive)	> 100 µM (inactive)	> 100 µM (inactive)	> 100 µM (inactive)	53.8 µM (inactive)	> 100 µM (inactive)	–	–
Cc1ccc(/C=C2\Cc3cc(C)c(C)cc3C2=O)c(C(=O)O)c1	22.3 µM (inactive)	43.5 µM (inactive)	30.9 µM (inactive)	29.6 µM (inactive)	28.2 µM (inactive)	43.3 µM (inactive)	22.8 µM (inactive)	24.3 µM (inactive)	45.6 µM (inactive)	> 10 µM (inactive)	31 µM (inactive)	45.8 µM (inactive)	–	16.3 µM (inactive)	24.5 µM (inactive)	33.7 µM (inactive)	22.1 µM (inactive)	–	34.3 µM (inactive)	–
COC(=O)/C=C\[C@H]1[C@H](C)N1S(=O)(=O)c1ccc(C)cc1 (some centres undefined)	> 100 µM (inactive)	> 100 µM (inactive)	> 100 µM (inactive)	> 100 µM (inactive)	> 100 µM (inactive)	> 100 µM (inactive)	> 100 µM (inactive)	> 100 µM (inactive)	> 100 µM (inactive)	> 100 µM (inactive)	> 100 µM (inactive)	> 100 µM (inactive)	> 100 µM (inactive)	> 100 µM (inactive)	> 100 µM (inactive)	> 100 µM (inactive)	20.4 µM (inactive)	> 100 µM (inactive)	> 100 µM (inactive)	–
CN(C)CC(CN(C)C)c1ccccn1	> 100 µM (inactive)	> 100 µM (inactive)	> 100 µM (inactive)	> 100 µM (inactive)	> 100 µM (inactive)	–	> 100 µM (inactive)	> 100 µM (inactive)	> 100 µM (inactive)	> 100 µM (inactive)	> 100 µM (inactive)	> 100 µM (inactive)	> 100 µM (inactive)	> 100 µM (inactive)	> 100 µM (inactive)	> 100 µM (inactive)	> 100 µM (inactive)	> 100 µM (inactive)	> 100 µM (inactive)	> 100 µM (inactive)
O=C1Cc2cc3ccccc3nc2-c2ccccc2N1	> 100 µM (inactive)	35.3 µM (inactive)	49.2 µM (inactive)	–	20.5 µM (inactive)	38.5 µM (inactive)	61.5 µM (inactive)	81.5 µM (inactive)	> 100 µM (inactive)	> 100 µM (inactive)	38.6 µM (inactive)	32.7 µM (inactive)	> 100 µM (inactive)	92.9 µM (inactive)	99.1 µM (inactive)	63.7 µM (inactive)	26.7 µM (inactive)	38 µM (inactive)	> 100 µM (inactive)	41.7 µM (inactive)
CCN(CC)c1nc(N(C)C)c2ccc(OC)cc2n1	17.3 µM (inactive)	15.2 µM (inactive)	20 µM (inactive)	8.49 µM (inactive)	17.1 µM (inactive)	17.2 µM (inactive)	–	32.3 µM (inactive)	15.9 µM (inactive)	15.1 µM (inactive)	17.1 µM (inactive)	22.9 µM (inactive)	7.55 µM (inactive)	22.8 µM (inactive)	11.5 µM (inactive)	10.3 µM (inactive)	11.7 µM (inactive)	13.7 µM (inactive)	3.49 µM (inactive)	18.5 µM (inactive)
Oc1c(Cl)c(Cl)c(O)c2c1CCCC2	17.7 µM (inactive)	18.7 µM (inactive)	16 µM (inactive)	14.3 µM (inactive)	15.4 µM (inactive)	–	19.1 µM (inactive)	11.6 µM (inactive)	19.7 µM (inactive)	18.4 µM (inactive)	3.48 µM (inactive)	–	1.83 µM (inactive)	14.8 µM (inactive)	16.8 µM (inactive)	15.1 µM (inactive)	1.97 µM (inactive)	14.2 µM (inactive)	–	1.85 µM (inactive)
CCCCC(=C=C(C)CO)C1CCCN1C(=O)OC(C)(C)C (centres undefined)	18.5 µM (inactive)	18.2 µM (inactive)	23.3 µM (inactive)	17.6 µM (inactive)	17 µM (inactive)	22.5 µM (inactive)	–	17.5 µM (inactive)	16.5 µM (inactive)	19 µM (inactive)	16.8 µM (inactive)	21.8 µM (inactive)	15.4 µM (inactive)	16.1 µM (inactive)	16 µM (inactive)	16.1 µM (inactive)	14.5 µM (inactive)	24.5 µM (inactive)	12.3 µM (inactive)	12.7 µM (inactive)
C=CCC1(O)CC(n2cc(C)c(=O)[nH]c2=O)OC1CO[Si](C)(C)C(C)(C)C (centres undefined)	36.5 µM (inactive)	42.9 µM (inactive)	> 100 µM (inactive)	51.6 µM (inactive)	64.6 µM (inactive)	55.2 µM (inactive)	37.2 µM (inactive)	–	22.3 µM (inactive)	44 µM (inactive)	31.2 µM (inactive)	54.6 µM (inactive)	21.6 µM (inactive)	46.3 µM (inactive)	52.4 µM (inactive)	38.7 µM (inactive)	–	–	57.3 µM (inactive)	35.5 µM (inactive)
O=Cc1ccc(-c2ccc(S(=O)(=O)O)cc2)o1	> 100 µM (inactive)	> 100 µM (inactive)	> 100 µM (inactive)	> 100 µM (inactive)	> 100 µM (inactive)	–	> 100 µM (inactive)	> 100 µM (inactive)	> 100 µM (inactive)	> 100 µM (inactive)	> 100 µM (inactive)	> 100 µM (inactive)	> 100 µM (inactive)	> 100 µM (inactive)	> 100 µM (inactive)	> 100 µM (inactive)	> 100 µM (inactive)	> 100 µM (inactive)	> 100 µM (inactive)	–
CC(=O)[C@@]1(C)CC2(CCN(C)CC2)OC1C (some centres undefined)	–	> 100 µM (inactive)	> 100 µM (inactive)	> 100 µM (inactive)	> 100 µM (inactive)	> 100 µM (inactive)	> 100 µM (inactive)	> 100 µM (inactive)	–	> 100 µM (inactive)	> 100 µM (inactive)	> 100 µM (inactive)	> 100 µM (inactive)	> 100 µM (inactive)	> 100 µM (inactive)	> 100 µM (inactive)	> 100 µM (inactive)	> 100 µM (inactive)	> 100 µM (inactive)	> 100 µM (inactive)
O=C1NC(N2CCOCC2)=N/C1=C\c1ccccc1	> 100 µM (inactive)	> 100 µM (inactive)	> 100 µM (inactive)	> 100 µM (inactive)	> 100 µM (inactive)	> 100 µM (inactive)	–	> 100 µM (inactive)	> 100 µM (inactive)	> 100 µM (inactive)	> 100 µM (inactive)	> 100 µM (inactive)	> 100 µM (inactive)	> 100 µM (inactive)	> 100 µM (inactive)	–	> 100 µM (inactive)	> 100 µM (inactive)	> 100 µM (inactive)	> 100 µM (inactive)
CC(ON(C(c1ccccc1)C(C)C)C(C)(C)C)c1ccccc1 (centres undefined)	33.8 µM (inactive)	21.8 µM (inactive)	18.5 µM (inactive)	25.8 µM (inactive)	21.1 µM (inactive)	25.9 µM (inactive)	–	24.4 µM (inactive)	18.4 µM (inactive)	18.7 µM (inactive)	18.4 µM (inactive)	21.7 µM (inactive)	17.3 µM (inactive)	12.6 µM (inactive)	17.2 µM (inactive)	18.1 µM (inactive)	26.5 µM (inactive)	39.3 µM (inactive)	15 µM (inactive)	20.6 µM (inactive)
COC(=O)/C=C(\C(=O)OC)C1C(=O)Oc2c(C)c(=O)c3ccccc3n21 (centres undefined)	> 100 µM (inactive)	> 100 µM (inactive)	> 100 µM (inactive)	> 100 µM (inactive)	> 100 µM (inactive)	> 100 µM (inactive)	–	> 100 µM (inactive)	> 100 µM (inactive)	> 100 µM (inactive)	> 100 µM (inactive)	> 100 µM (inactive)	> 100 µM (inactive)	> 100 µM (inactive)	> 100 µM (inactive)	> 100 µM (inactive)	> 100 µM (inactive)	> 100 µM (inactive)	> 100 µM (inactive)	–
C/C(=N\NC(=O)c1ccccc1O)c1cccc(/C(C)=N/NC(=O)c2ccccc2O)n1	7.1 µM (inactive)	2.13 µM (inactive)	–	> 57 µM (inactive)	19.4 µM (inactive)	4.24 µM (inactive)	37.8 µM (inactive)	3.41 µM (inactive)	10.2 µM (inactive)	–	1.7 µM (inactive)	–	–	> 39.4 µM (inactive)	–	6.71 µM (inactive)	–	4.12 µM (inactive)	0.955 µM (active)	10.9 µM (inactive)
